Measurements: article PMC4682813, “The Aminosteroid Derivative RM-133 Shows In Vitro and In Vivo Antitumor Activity in Human Ovarian and Pancreatic Cancers” (PLoS ONE, 2015)
Several values for one entry are separate records, joined by “and”; a condition that tells them apart may be missing. Equal values may be shown once. Read-outs that look alike come from different tables or passages of the source.

Assays:
[1] = RM-133 plasma and tumor concentration in nude mice after the xenograft experiment (second part), LC-MS/MS; type: in vivo, nu/nu nude mice; details: for concentration at 12 h: 12 h after single s.c. 60 mg/kg (0.1 mL)
Protocol: At the end of the xenograft experiment, and in order to obtain preliminary pharmacological data, mice in treated groups were separated into 4 subgroups of 2–3 mice each, injected s.c. with RM-133 (60 mg/kg) and sacrificed after 3, 7, 12, or 24 h. In parallel, mice in the control group were also separated into 4 subgroups, treated with RM-133 (60 mg/kg) as for treated mice, and sacrificed at the same intervals. Blood was collected from mice by cardiac puncture, and the plasma concentration of RM-133 determined by liquid chromatography–tandem mass spectrometry (LC-MS/MS) as previously reported. Tumors of the mice in the treated group were collected at necropsy, pooled, homogenized according to a known procedure and the quantity of RM-133 was determined by LC-MS/MS.

[2] = Plasma concentration of RM-133 with different vehicles; type: in vivo, Balb/c mice; details: female, Balb/c, mouse, sc, 120 mg/kg, single s.c. 120 mg/kg in 0.1 mL
From the text: (§1) Eleven different vehicles were investigated by s.c. injection. These vehicles were formulated as follows: vehicle #1 [propylene glycol:EtOH (92:8)]; vehicle #2 [aqueous 0.4% methylcellulose:EtOH (92:8)]; vehicle #3 [castor oil:EtOH:benzyl alcohol:benzyl benzoate (65:10:10:15)]; vehicle #4 [sunflower oil:EtOH (92:8)]; vehicle #5 [sunflower oil:tetrahydrofuran (92:8)]; vehicle #6 [aqueous 25% β-cyclodextrin:EtOH (92:8)]; vehicle #7 [sesame oil:EtOH:benzyl benzoate:benzyl alcohol:Tween 80 (89.8:7.8:1:1:0.5)]; vehicle #8 [soya oil:EtOH (92:8)]; vehicle #9 [RPMI medium:EtOH (92:8)]; vehicle #10 [saline:dimethyl sulfoxide (DMSO):Tween 80 (89.5:10:0.5)]; and vehicle #11 [saline:benzyl alcohol:carboxymethylcellulose:Tween 80 (98.2:0.9:0.5:0.4)]. The eight vehicles producing the best RM-133 solubility (#1–8) were injected s.c. (0.1 mL) without the test compound (RM-133) for tolerance and behavioral evaluation studies, by observing mice at 0.25, 1, 3, 7, 23, 26, 28, 30, and 96 h post-injection. Finally, RM-133 was injected s.c. once at 120 mg/kg/0.1 mL of the best […] tolerated vehicles (#1,2,4–7) into ♀ Balb/c mice (4 per group), and mice were next monitored with blood collection by cardiac puncture after 3 and 12 h. The plasma concentration of RM-133 was then determined by LC-MS/MS as above.

[3] = Solubility of RM-133 in injection vehicles; type: physicochemical; details: vehicle #5 sunflower oil:tetrahydrofuran (92:8)
From the text: as §1

[4] = tested on: OVCAR-3 tumors xenografted in nu/nu nude mice; assay: OVCAR-3 xenografts using the two selected vehicles; type: in vivo
From the text: (§2) All in vivo experiments were approved by our Institutional Animal Care and Use Committee (Comités de protection des animaux de l’Université Laval) and carried out according to the guidelines of the Canadian Council on Animal Care. For xenografts, homozygous ♀ nu/nu nude mice (24–42 days old) were purchased from Charles River Inc. (Saint-Constant, QC, Canada) and housed (four to five) in vinyl micro-isolated ventilated cages, equipped with air lids, which were kept in laminar airflow hoods and maintained under pathogen-limiting conditions. During the acclimatization and study period, the animals were housed under a controlled environment at 22 ± 3°C, with 50 ± 20% relative humidity and light set at 12 h/day (light on at 07:15). Rodent food (Rodent diet #T.2018.15, Harlan Teklad, Madison, WI) and water were provided ad libitum. For nu/nu nude mice, food and water were sterilized prior to dispensing to the animals. Standard Balb/c mice were used for pharmacokinetic studies. Animals were anesthetized with isoflurane and killed by cervical dislocation.
Fourty ♀ nu/nu nude mice (22–24 g) were inoculated with 5×10^6 OVCAR-3 cells per flank, in 30% matrigel-containing culture medium (0.1 mL). After 23 days, tumor-bearing mice were randomized in 4 groups of 8 to 9 mice each. […] Two control mouse groups, each representing 12 tumors, received only the vehicles. As mentioned above, the tumor area was measured twice weekly and body weight monitored.

[5] = tested on: PANC-1 tumors xenografted in nu/nu nude mice; assay: PANC-1 xenografts in nude mice; type: in vivo; details: aqueous 0.4% methylcellulose:EtOH (92:8), 240 mg/kg s.c. twice a day every other day
From the text: as §2
Twenty female nu/nu nude mice (22–24 g) were inoculated with 5×10^6 PANC-1 cells per flank, in 30% matrigel-containing culture medium (0.1 mL). Ten days after inoculation, tumor-bearing mice were randomized in 2 groups of 10 mice each. […] Mice in the second (control) group (n = 18 tumors) received the vehicle only. As with previous xenografts, the tumor area was measured and mouse body weight monitored.

[6] = mouse, in vivo
Protocol: Ten ♀ Balb/c mice weighing approximately 23 g were separated in 3 groups. […] Mice in groups 1 and 2 received a total of 8 injections over 4 days and were sacrificed on day 8. Mice behavior was monitored during the whole duration of the experiment, and macroscopic observation of organs was performed upon necropsy.

[7] = Plasma concentration of RM-133 with different vehicles; type: in vivo, Balb/c mice; details: female, Balb/c, mouse, sc, 120 mg/kg, single s.c. 120 mg/kg in 0.1 mL; remark: listed apart in the source
[8] = vehicle #1 propylene glycol (92%) EtOH (8%)
[9] = vehicle #2 aqueous 0.4% methylcellulose (92%) EtOH (8%)
[10] = vehicle #4 sunflower oil (92%) EtOH (8%)
[11] = vehicle #5 sunflower oil (92%) tetrahydrofuran (8%)
[12] = vehicle #6 aqueous 25% β-cyclodextrin (92%) EtOH (8%)
[13] = sunflower oil:EtOH (92:8), 240 mg/kg s.c. every other day
[14] = vehicle #7 sesame oil (89.7%) EtOH (7.8%) benzyl benzoate (1%) benzyl alcohol (1%) Tween 80 (0.5%)
[15] = vehicle #8 soya oil (92%) EtOH (8%)

Q: For `C#C[C@]1(O)CC[C@H]2[C@@H]3CC[C@H]4C[C@H](O)[C@@H](N5CCN(C(=O)[C@@H]6CCCN6C(=O)c6ccc7ccccc7n6)CC5)C[C@]4(C)[C@H]3CC[C@@]21C` [RM-133], which accumulation in blood ([1]; 21 days-xenograft experiment, 60 mg/kg daily s.c.) is on record?
A: Its accumulation in blood is “does not accumulate in blood”.

Q: What about the “concentration inside the tumor” value ([1]; OVCAR-3 tumors of treated mice collected at necropsy, pooled) of the same compound?
A: Its value is 1.2 μM and 773 ng/g.

Q: What about the concentration at 12 h ([1]; nu/nu nude, mouse, plasma, sc, 60 mg/kg, group A: previously treated daily for 21 days) of the same compound?
A: The concentration at 12 h was 178 ng/mL.

Q: And the concentration at 12 h ([1]; nu/nu nude, mouse, plasma, sc, 60 mg/kg, group B: not previously exposed to the drug)?
A: Its concentration at 12 h is 91 ng/mL.

Q: And the concentration at 24 h ([1]; nu/nu nude, mouse, plasma, sc, 60 mg/kg, single s.c. 60 mg/kg in 0.1 mL propylene glycol:EtOH (92:8), 24 h, nude mice)?
A: Its concentration at 24 h is 81 ng/mL.

Q: What about the “maximum average plasma concentration” value ([1]; single s.c. 60 mg/kg in 0.1 mL propylene glycol:EtOH (92:8), 3 h, nude mice) of the same compound?
A: Its value is 460 ng/mL.

Q: And the concentration at 3 h [2, 8]?
A: Its concentration at 3 h is 314 ± 2 ng/mL.

Q: And the concentration at 12 h [2, 8]?
A: The concentration at 12 h was 189 ± 5 ng/mL.

Q: What about the concentration at 3 h [2, 9] of the same compound?
A: The concentration at 3 h was 449 ± 5 ng/mL.

Q: And the concentration at 12 h [2, 9]?
A: The concentration at 12 h was 171 ± 10 ng/mL.

Q: And the concentration at 3 h [2, 10]?
A: The concentration at 3 h was 285 ± 5 ng/mL.

Q: What about the concentration at 12 h [2, 10] of the same compound?
A: Its concentration at 12 h is 173 ± 6 ng/mL.

Q: What about the concentration at 3 h [2, 11] of the same compound?
A: Its concentration at 3 h is 642 ± 20 ng/mL.

Q: And the concentration at 12 h [2, 11]?
A: The concentration at 12 h was 374 ± 9 ng/mL.

Q: What about the concentration at 3 h [2, 12] of the same compound?
A: Its concentration at 3 h is 2960 ± 121 ng/mL.

Q: What about the concentration at 12 h [2, 12] of the same compound?
A: The concentration at 12 h was 1780 ± 47 ng/mL.

Q: What about the solubility in vehicle [3] of the same compound?
A: Its solubility in vehicle is “poorly soluble”.

Q: And the “day at which tumor growth became significantly different from control” value ([4]; aqueous 0.4% methylcellulose:EtOH (92:8), 240 mg/kg s.c. twice a day every other day)?
A: The value was 15 days.

Q: And the “tumor size relative to its initial value” ([4]; aqueous 0.4% methylcellulose:EtOH (92:8), 240 mg/kg s.c. twice a day every other day, end of treatment (35 days))?
A: The value was 78%.

Q: What about the “OVCAR-3 tumor growth inhibition” value ([4]; aqueous 0.4% methylcellulose:EtOH (92:8), 240 mg/kg/0.2 mL s.c. twice a day every other day, after 28 days) of the same compound?
A: The value was 100%.

Q: What about the “abnormal behavior or death” value ([4]; aqueous 0.4% methylcellulose:EtOH (92:8), 35-day treatment period) of the same compound?
A: Its value is “neither abnormal behavior nor death”.

Q: And the “reduction of OVCAR-3 xenograft growth” value ([4]; methylcellulose-based vehicle, s.c. (abstract))?
A: Its value is 122%.

Q: What about the “body weight, treated vs control” value [4, 13] of the same compound?
A: The value was “No significant difference”.

Q: What about the “day at which the effect on tumor growth became significant” value [4, 13] of the same compound?
A: Its value is 28 days.

Q: What about the “toxicity symptoms during the study or at necropsy” value [4, 13] of the same compound?
A: The value was “no toxicity symptom”.

Q: And the “OVCAR-3 tumor growth inhibition” value ([4]; sunflower oil:EtOH (92:8), 240 mg/kg/0.2 mL s.c. once every other day, end of treatment (40 days))?
A: The value was 100%.

Q: What about the “tumor growth after treatment was stopped” value ([4]; sunflower oil:EtOH (92:8), treatment stopped at day 40, no significant difference seven days after termination) of the same compound?
A: Its value is “tumor growth resumed”.

Q: And the “apparent toxicity during the experimental period or at necropsy” value [5]?
A: Its value is “no apparent toxicity”.

Q: And the body weight [5]?
A: Its body weight is “not affected”.

Q: And the “reduction of PANC-1 tumor size progression” value ([5]; day 22)?
A: The value was 75%.

Q: What about the “reduction of PANC-1 tumor progression” value ([5]; end of treatment (40 days)) of the same compound?
A: Its value is 63%.

Q: What about the “mice with slightly enlarged kidneys at necropsy” value ([6]; female, Balb/c, 24 h) of the same compound?
A: The value was 75%.

Q: And the “adverse effect on mice” value ([6]; 120 mg/kg)?
A: The value was “no adverse effect”.

Q: What about the “adverse effect on mice” value ([6]; 240 mg/kg) of the same compound?
A: The value was “no adverse effect”.

Q: And the “macroscopic observation of organs at necropsy” value ([6]; sc)?
A: Its value is “organs did not show any detectable abnormality”.

Q: And the concentration at 3 h [7, 14]?
A: Its concentration at 3 h is 302 ± 7 ng/mL.

Q: And the concentration at 12 h [7, 14]?
A: The concentration at 12 h was 214 ± 8 ng/mL.

Q: And the concentration at 3 h [7, 15]?
A: The concentration at 3 h was 137 ± 2 ng/mL.

Q: What about the concentration at 12 h [7, 15] of the same compound?
A: The concentration at 12 h was 52 ± 1 ng/mL.
